Data reported in patent publication US11840686B2, “Modulation of prekallikrein (PKK) expression” (Ionis Pharmaceuticals, Inc., priority 2013, dated 2023).
Strand notation (5' to 3'): a small letter for the sugar, then the base; units joined by * are phosphorothioate-linked, units joined directly phosphodiester-linked; [ ] holds rarer units or linkages, { } end groups; capitals alone tell only the bases. e = 2'-O-(2-methoxyethyl) (MOE); [5mC] = 5-methylcytosine; d = 2'-deoxy (DNA)

Test system: human PKK mRNA
Assay: Antisense inhibition of human PKK mRNA in HepaRG cells, 5,000 nM (Example 2)
Assay type: cell-based
How it was run: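 HepaRG cells (20,000/well) electroporated with 5,000 nM MOE gapmer (phosphorothioate backbone, 5-methylcytosines) and harvested after ~24 h. PKK mRNA measured by qRT-PCR with primer probe set RTS3454, normalized to RIBOGREEN total RNA; percent inhibition versus untreated cells.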

[1] = HepaRG cells, 5,000 nM antisense oligonucleotide, 5-10-5 gapmers, Table 16
[2] = HepaRG cells, electroporation, 5,000 nM antisense oligonucleotide, approx. 24 hours, primer probe set RTS3454, relative to untreated control cells, Table 11
[3] = Table 13, human PKK mRNA in HepaRG cells, 5-10-5 gapmers
[4] = HepaRG cells, electroporation with 5,000 nM antisense oligonucleotide, approximately 24 hours, PKK mRNA by RT-PCR (RTS3454), relative to untreated control cells, Table 5 experiment
[5] = human PKK mRNA in HepaRG cells, 5-10-5 gapmers, Table 14
[6] = HepaRG cells, electroporation, 5,000 nM antisense oligonucleotide, approx. 24 hours, primer probe set RTS3454, relative to untreated control cells, Table 12

546529 (eG*e[5mC]*eA*e[5mC]*e[5mC]*dT*dG*dG*d[5mC]*dA*dG*dA*dA*d[5mC]*dA*eG*eT*eA*e[5mC]*e[5mC]; antisense) [compound 546529]
% inhibition [1]: 65%

547692 (antisense e[5mC]*eA*e[5mC]*eT*eG*dT*dA*d[5mC]*d[5mC]*dT*dA*dT*dA*dA*d[5mC]*eT*eG*eT*eA*eA) [compound 547692]
% inhibition [1]: 47%

546386 (eA*eG*e[5mC]*e[5mC]*eA*dG*dA*d[5mC]*dA*dT*dT*dG*dT*d[5mC]*d[5mC]*eT*e[5mC]*eA*eG*e[5mC]; antisense) [compound 546386]
% inhibition [2]: 78%

547369 (eA*eA*eG*e[5mC]*eA*dT*d[5mC]*dT*dG*dG*dA*dG*dT*dG*dA*eG*eA*eA*e[5mC]*e[5mC]; antisense) [compound 547369]
% inhibition (Table 7, HepaRG cells, electroporation with 5,000 nM antisense oligonucleotide, approx. 24 hours, PKK mRNA by RT-PCR (RTS3454), relative to untreated control cells): 76%

546799 (eA*eT*eG*eA*eA*dG*dG*dG*d[5mC]*dG*dA*dG*dG*d[5mC]*dG*e[5mC]*eA*eG*eT*eG; antisense) [compound 546799]
% inhibition [3]: 5%

547329 (antisense eT*eT*eA*eT*eT*dT*dG*dA*dT*dG*dA*d[5mC]*d[5mC]*dA*d[5mC]*eA*eT*eT*eG*e[5mC]) [compound 547329]
% inhibition (HepaRG cells, electroporation with 5,000 nM antisense oligonucleotide, approximately 24 hours, PKK mRNA by RT-PCR (RTS3454), relative to untreated control cells, Table 6 experiment): 24%

546370 (antisense eA*e[5mC]*eT*eT*eG*dA*dA*d[5mC]*dT*d[5mC]*dA*dG*dG*dT*dT*eG*eT*eA*eA*eA) [compound 546370]
% inhibition [2]: 34%

547278 (antisense eA*e[5mC]*eA*e[5mC]*eA*dA*dT*dT*dG*d[5mC]*dT*dT*d[5mC]*dT*dT*eG*eG*eA*eG*eG) [compound 547278]
% inhibition [4]: 70%

548723 (DNA e[5mC]*eA*e[5mC]*dT*dG*dT*dA*d[5mC]*dT*dA*dG*dT*dT*eT*e[5mC]*e[5mC]*eT; antisense) [compound 548723]
% inhibition (HepaRG cells, 5,000 nM antisense oligonucleotide, human PKK mRNA, Table 18): 62%

546824 (eG*eT*eA*e[5mC]*eT*dA*dG*dT*dT*dT*d[5mC]*d[5mC]*dT*dA*dT*eA*eA*e[5mC]*eT*eG; antisense) [compound 546824]
% inhibition [3]: 79%

548781 (antisense eA*e[5mC]*e[5mC]*eT*dA*dT*dA*dA*d[5mC]*dT*dA*dT*dA*eA*e[5mC]*eA*eG) [compound 548781]
% inhibition (human PKK mRNA, HepaRG cells, 5,000 nM antisense oligonucleotide, Table 18): 0%

547609 (antisense e[5mC]*eT*eA*eT*eA*dA*d[5mC]*dA*dA*dT*dA*dT*d[5mC]*dA*d[5mC]*eT*eG*eT*eA*e[5mC]) [compound 547609]
% inhibition [5]: 23%

546499 (eT*e[5mC]*e[5mC]*eA*eT*dG*d[5mC]*dA*dT*dA*d[5mC]*dT*d[5mC]*dG*d[5mC]*e[5mC]*eT*eT*eT*eG; antisense) [compound 546499]
% inhibition [6]: 20%

547416 (e[5mC]*eT*eT*eA*e[5mC]*dA*dG*dT*d[5mC]*dT*dT*d[5mC]*dT*dG*dG*eG*eA*eG*eT*eA; antisense) [compound 547416]
% inhibition (Table 8, HepaRG cells, electroporation with 5,000 nM antisense oligonucleotide, approx. 24 hours, PKK mRNA by RT-PCR (RTS3454), relative to untreated control cells): 79%

546710 (eG*eA*eA*eG*e[5mC]*d[5mC]*dT*dG*dT*dT*dA*dG*dA*dG*dT*eT*eG*eG*e[5mC]*e[5mC]; antisense) [compound 546710]
% inhibition [6]: 73%

546746 (eT*e[5mC]*e[5mC]*eT*eG*dT*dT*dG*d[5mC]*d[5mC]*dT*dG*dA*d[5mC]*dA*eT*eG*e[5mC]*eT*eA; antisense) [compound 546746]
% inhibition [3]: 65%

547772 (antisense e[5mC]*eT*eG*eT*eG*d[5mC]*dT*d[5mC]*d[5mC]*d[5mC]*dG*dG*d[5mC]*d[5mC]*dA*eT*eT*eA*eG*e[5mC]) [compound 547772]
% inhibition (HepaRG cells, 5,000 nM antisense oligonucleotide, 5-10-5 gapmers, Table 17): 0%

547310 (antisense eA*eT*e[5mC]*eT*eT*dT*d[5mC]*dA*dA*dG*dA*dA*dG*d[5mC]*dA*eA*e[5mC]*e[5mC]*eA*eA) [compound 547310]
% inhibition [4]: 81%

546705 (e[5mC]*e[5mC]*e[5mC]*e[5mC]*eT*dG*dT*dA*dG*dT*dT*dG*dG*d[5mC]*dT*eG*eT*eG*eG*eT; antisense) [compound 546705]
% inhibition [6]: 66%

547597 (antisense e[5mC]*eA*eA*eT*eA*dT*d[5mC]*dA*d[5mC]*dT*dG*dT*d[5mC]*d[5mC]*dT*eA*eT*eA*eT*e[5mC]) [compound 547597]
% inhibition [5]: 29%
